Results published in ChEMBL document CHEMBL1201862, “PubChem BioAssay data set” (2004).
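Interpolation was linear, between the two tested concentrations surrounding the appropriate level; five concentrations were tested over 48 hours in 96-well plates. GI50 is the concentration that inhibits growth by half.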 Calls of active or inactive are those of the source. Cut-off read from the data, not from the text of the source: active = GI50 up to about 1.1 µM and inactive = higher.

Legend:
Test in all cases: DTP human tumour cell line panel, 48 h
786-0 = test system: 786-0
A498 = test system: A498
A549 = test system: A549
ACHN = test system: ACHN
BT-549 = test system: BT-549
CAKI-1 = test system: CAKI-1
CCRF-CEM = test system: CCRF-CEM
COLO 205 = test system: COLO 205
DU-145 = test system: DU-145
EKVX = test system: EKVX
HCC 2998 = test system: HCC 2998
HCT-116 = test system: HCT-116
HCT-15 = test system: HCT-15
HL-60 = test system: HL-60
HOP-62 = test system: HOP-62
HOP-92 = test system: HOP-92
HT-29 = test system: HT-29
Hs-578T = test system: Hs-578T
IGROV-1 = test system: IGROV-1
K562 = test system: K562
KM12 = test system: KM12
LOX IMVI = test system: LOX IMVI
M14 = test system: M14
MCF7 = test system: MCF7
MDA-MB-231 = test system: MDA-MB-231
MDA-MB-435 = test system: MDA-MB-435
MDA-N = test system: MDA-N
MOLT-4 = test system: MOLT-4
Malme-3M = test system: Malme-3M
NCI-H226 = test system: NCI-H226
NCI-H23 = test system: NCI-H23
NCI-H460 = test system: NCI-H460
NCI-H522 = test system: NCI-H522
NCI/ADR-RES = test system: NCI/ADR-RES
OVCAR-3 = test system: OVCAR-3
OVCAR-4 = test system: OVCAR-4
OVCAR-5 = test system: OVCAR-5
OVCAR-8 = test system: OVCAR-8
PC-3 = test system: PC-3
RPMI-8226 = test system: RPMI-8226
RXF 393 = test system: RXF 393
SF-268 = test system: SF-268
SF-295 = test system: SF-295
SK-MEL-28 = test system: SK-MEL-28
SK-MEL-2 = test system: SK-MEL-2
SK-MEL-5 = test system: SK-MEL-5
SK-OV-3 = test system: SK-OV-3
SN12C = test system: SN12C
SNB-19 = test system: SNB-19
SNB-75 = test system: SNB-75
SR = test system: SR
SW-620 = test system: SW-620
T47D = test system: T47D
TK-10 = test system: TK-10
U-251 = test system: U-251
UACC-257 = test system: UACC-257
UACC-62 = test system: UACC-62
UO-31 = test system: UO-31

NS(=O)(=O)c1ccc(N=C2C(=O)Nc3ccccc32)cc1
GI50 (786-0): > 100 µM (inactive)
GI50 (A498): > 100 µM (inactive)
GI50 (A549): > 100 µM (inactive)
GI50 (ACHN): > 100 µM (inactive)
GI50 (BT-549): > 100 µM (inactive)
GI50 (CAKI-1): > 100 µM (inactive)
GI50 (CCRF-CEM): 55.8 µM (inactive)
GI50 (COLO 205): 13.1 µM (inactive)
GI50 (DU-145): > 100 µM (inactive)
GI50 (EKVX): > 100 µM (inactive)
GI50 (HCC 2998): > 100 µM (inactive)
GI50 (HCT-116): > 100 µM (inactive)
GI50 (HCT-15): > 100 µM
GI50 (HL-60): > 100 µM (inactive)
GI50 (HOP-62): > 100 µM (inactive)
GI50 (HOP-92): > 100 µM (inactive)
GI50 (HT-29): > 100 µM (inactive)
GI50 (Hs-578T): > 100 µM (inactive)
GI50 (IGROV-1): > 100 µM (inactive)
GI50 (K562): 65.8 µM (inactive)
GI50 (KM12): > 100 µM (inactive)
GI50 (LOX IMVI): 57.7 µM (inactive)
GI50 (M14): > 100 µM (inactive)
GI50 (MCF7): 90.2 µM (inactive)
GI50 (MDA-MB-231): > 100 µM (inactive)
GI50 (MDA-MB-435): 24.5 µM (inactive)
GI50 (MDA-N): > 100 µM (inactive)
GI50 (MOLT-4): > 100 µM (inactive)
GI50 (Malme-3M): > 100 µM (inactive)
GI50 (NCI-H226): > 100 µM (inactive)
GI50 (NCI-H23): > 100 µM (inactive)
GI50 (NCI-H460): > 100 µM (inactive)
GI50 (NCI-H522): 70.8 µM (inactive)
GI50 (NCI/ADR-RES): > 100 µM (inactive)
GI50 (OVCAR-3): > 100 µM (inactive)
GI50 (OVCAR-4): > 100 µM (inactive)
GI50 (OVCAR-5): > 100 µM (inactive)
GI50 (OVCAR-8): > 100 µM (inactive)
GI50 (PC-3): > 100 µM (inactive)
GI50 (RPMI-8226): > 100 µM (inactive)
GI50 (RXF 393): > 100 µM (inactive)
GI50 (SF-268): > 100 µM (inactive)
GI50 (SF-295): > 100 µM (inactive)
GI50 (SK-MEL-28): > 100 µM (inactive)
GI50 (SK-MEL-2): > 100 µM (inactive)
GI50 (SK-MEL-5): 36.8 µM (inactive)
GI50 (SK-OV-3): > 100 µM (inactive)
GI50 (SN12C): > 100 µM (inactive)
GI50 (SNB-19): > 100 µM (inactive)
GI50 (SNB-75): > 100 µM (inactive)
GI50 (SR): 67.8 µM (inactive)
GI50 (SW-620): > 100 µM (inactive)
GI50 (T47D): > 100 µM (inactive)
GI50 (TK-10): > 100 µM (inactive)
GI50 (U-251): > 100 µM (inactive)
GI50 (UACC-257): > 100 µM (inactive)
GI50 (UACC-62): > 100 µM (inactive)
GI50 (UO-31): > 100 µM (inactive)

Cc1ccc([N+](=O)[O-])cc1/N=N/C(=O)NNc1cc([N+](=O)[O-])ccc1C
GI50 (A498): 21.4 µM (inactive)
GI50 (BT-549): 22.5 µM (inactive)
GI50 (CAKI-1): 25.9 µM (inactive)
GI50 (CCRF-CEM): 10 µM (inactive)
GI50 (COLO 205): 33.1 µM (inactive)
GI50 (DU-145): 35.3 µM (inactive)
GI50 (HCC 2998): 23.3 µM (inactive)
GI50 (HCT-116): 17.7 µM (inactive)
GI50 (HCT-15): 21.7 µM
GI50 (HL-60): 48.2 µM (inactive)
GI50 (HOP-62): 26.4 µM (inactive)
GI50 (HOP-92): 70.8 µM (inactive)
GI50 (HT-29): 21.9 µM (inactive)
GI50 (Hs-578T): 26.4 µM (inactive)
GI50 (IGROV-1): > 10 µM (inactive)
GI50 (K562): 19.7 µM (inactive)
GI50 (KM12): 23.4 µM (inactive)
GI50 (M14): 18.9 µM (inactive)
GI50 (MCF7): 26.4 µM (inactive)
GI50 (MDA-MB-231): 15.5 µM (inactive)
GI50 (MDA-MB-435): 22.2 µM (inactive)
GI50 (MDA-N): 26.6 µM (inactive)
GI50 (MOLT-4): 9.29 µM (inactive)
GI50 (Malme-3M): 37.6 µM (inactive)
GI50 (NCI-H226): > 10 µM (inactive)
GI50 (NCI-H23): 48.9 µM (inactive)
GI50 (NCI-H460): > 10 µM (inactive)
GI50 (NCI-H522): 15.8 µM (inactive)
GI50 (NCI/ADR-RES): 27.9 µM (inactive)
GI50 (OVCAR-3): 18.1 µM (inactive)
GI50 (OVCAR-5): 51.3 µM (inactive)
GI50 (OVCAR-8): 27 µM (inactive)
GI50 (PC-3): 17.6 µM (inactive)
GI50 (RPMI-8226): 30.4 µM (inactive)
GI50 (RXF 393): 18.1 µM (inactive)
GI50 (SF-295): 17.9 µM (inactive)
GI50 (SK-MEL-28): 26.8 µM (inactive)
GI50 (SK-MEL-2): 24 µM (inactive)
GI50 (SK-MEL-5): 17.8 µM (inactive)
GI50 (SK-OV-3): 11.1 µM (inactive)
GI50 (SN12C): > 10 µM (inactive)
GI50 (SNB-19): 41.9 µM (inactive)
GI50 (SNB-75): 21.3 µM (inactive)
GI50 (SR): 52.8 µM (inactive)
GI50 (T47D): 31.3 µM (inactive)
GI50 (U-251): 32.9 µM (inactive)
GI50 (UACC-62): 14.7 µM (inactive)
GI50 (UO-31): 23.6 µM (inactive)

c1ccc(/N=C2/SC3=Nc4cccc5cccc(c45)N3/C2=N/c2ccccc2)cc1
GI50 (A498): > 100 µM (inactive)
GI50 (BT-549): > 100 µM (inactive)
GI50 (CAKI-1): > 100 µM (inactive)
GI50 (CCRF-CEM): 54.1 µM (inactive)
GI50 (COLO 205): > 100 µM (inactive)
GI50 (DU-145): > 100 µM (inactive)
GI50 (HCC 2998): > 100 µM (inactive)
GI50 (HCT-116): > 10 µM (inactive)
GI50 (HCT-15): > 100 µM
GI50 (HL-60): > 100 µM (inactive)
GI50 (HOP-62): > 100 µM (inactive)
GI50 (HOP-92): > 100 µM (inactive)
GI50 (HT-29): > 100 µM (inactive)
GI50 (Hs-578T): > 100 µM (inactive)
GI50 (IGROV-1): > 100 µM (inactive)
GI50 (K562): > 100 µM (inactive)
GI50 (KM12): > 100 µM (inactive)
GI50 (M14): > 100 µM (inactive)
GI50 (MCF7): > 100 µM (inactive)
GI50 (MDA-MB-231): > 100 µM (inactive)
GI50 (MDA-MB-435): > 100 µM (inactive)
GI50 (MDA-N): > 100 µM (inactive)
GI50 (MOLT-4): 79.3 µM (inactive)
GI50 (Malme-3M): > 100 µM (inactive)
GI50 (NCI-H226): > 100 µM (inactive)
GI50 (NCI-H23): > 100 µM (inactive)
GI50 (NCI-H460): > 100 µM (inactive)
GI50 (NCI-H522): > 100 µM (inactive)
GI50 (NCI/ADR-RES): > 100 µM (inactive)
GI50 (OVCAR-3): > 100 µM (inactive)
GI50 (OVCAR-5): > 100 µM (inactive)
GI50 (OVCAR-8): > 100 µM (inactive)
GI50 (PC-3): > 100 µM (inactive)
GI50 (RPMI-8226): > 100 µM (inactive)
GI50 (RXF 393): > 100 µM (inactive)
GI50 (SF-295): > 100 µM (inactive)
GI50 (SK-MEL-28): > 100 µM (inactive)
GI50 (SK-MEL-2): > 100 µM (inactive)
GI50 (SK-MEL-5): > 100 µM (inactive)
GI50 (SK-OV-3): > 100 µM (inactive)
GI50 (SN12C): > 100 µM (inactive)
GI50 (SNB-19): > 100 µM (inactive)
GI50 (SNB-75): > 100 µM (inactive)
GI50 (SR): > 100 µM (inactive)
GI50 (T47D): > 100 µM (inactive)
GI50 (U-251): > 100 µM (inactive)
GI50 (UACC-62): > 100 µM (inactive)
GI50 (UO-31): > 100 µM (inactive)
